Read-outs that look alike come from different tables or passages of the source.

The values below come from patent US20200079766A1, “MONOCYCLIC OGA INHIBITOR COMPOUNDS” (Janssen Pharmaceutica NV, priority 2016, published 2020).

This experiment deals with T1, recombinant human Meningioma Expressed Antigen 5 (MGEA5), also referred to as O-GlcNAcase (OGA) (Homo sapiens, UniProt O60502).
T1 construct: Full length OGA enzyme was purchased at OriGene (cat # TP322411); purchased OriGene TP322411
T1 sequence (O60502 1-916): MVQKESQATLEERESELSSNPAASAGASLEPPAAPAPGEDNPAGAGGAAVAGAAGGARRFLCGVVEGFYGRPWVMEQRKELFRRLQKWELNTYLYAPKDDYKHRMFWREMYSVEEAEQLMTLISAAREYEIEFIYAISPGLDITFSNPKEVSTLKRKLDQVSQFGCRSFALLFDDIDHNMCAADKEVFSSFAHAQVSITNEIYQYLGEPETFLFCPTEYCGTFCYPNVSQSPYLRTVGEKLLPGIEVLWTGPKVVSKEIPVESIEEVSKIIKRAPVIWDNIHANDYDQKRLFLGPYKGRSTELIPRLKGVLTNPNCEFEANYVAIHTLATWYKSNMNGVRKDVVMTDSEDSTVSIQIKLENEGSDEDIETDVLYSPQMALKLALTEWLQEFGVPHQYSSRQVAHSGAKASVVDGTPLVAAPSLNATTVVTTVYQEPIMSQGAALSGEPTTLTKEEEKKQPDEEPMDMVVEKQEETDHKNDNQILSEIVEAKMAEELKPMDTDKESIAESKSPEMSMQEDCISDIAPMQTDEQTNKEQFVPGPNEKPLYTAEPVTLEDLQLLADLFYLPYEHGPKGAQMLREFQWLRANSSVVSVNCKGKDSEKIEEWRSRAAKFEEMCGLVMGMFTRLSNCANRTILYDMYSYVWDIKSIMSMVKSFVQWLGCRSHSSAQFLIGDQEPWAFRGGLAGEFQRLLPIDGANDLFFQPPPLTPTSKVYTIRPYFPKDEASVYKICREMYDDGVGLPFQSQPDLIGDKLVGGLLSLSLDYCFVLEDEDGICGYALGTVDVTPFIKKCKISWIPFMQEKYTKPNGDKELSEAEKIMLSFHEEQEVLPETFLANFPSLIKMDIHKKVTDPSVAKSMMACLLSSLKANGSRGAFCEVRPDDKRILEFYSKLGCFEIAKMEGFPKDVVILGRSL
The experiment is described as follows: OGA biochemical assay: inhibition of FM-GlcNAc hydrolysis, fluorescence; protocol A (10 nM OGA, 1 h) or protocol B (2 nM OGA, 6 h). The following applies: for IC50: read-out: Enzymatic hOGA, pIC50 (converted). From the text: The assay is based on the inhibition of the hydrolysis of fluorescein mono-3-D-N-Acetyl-Glucosamine (FM-GlcNAc) (Mariappa et al. 2015, Biochem J 470:255) by the recombinant human Meningioma Expressed Antigen 5 (MGEA5), also referred to as O-GlcNAcase (OGA). The hydrolysis FM-GlcNAc (Marker Gene technologies, cat # M1485) results in the formation of ß-D-N-glucosamineacetate and fluorescein. The fluorescence of the latter can be measured at excitation wavelength 485 nm and emission wavelength 538 nm. An increase in enzyme activity results in an increase in fluorescence signal. Full length OGA enzyme was purchased at OriGene (cat # TP322411). The enzyme was stored in 25 mM Tris.HCl, pH 7.3, 100 mM glycine, 10% glycerol at −20° C. Thiamet G and GlcNAcStatin were tested as reference compounds (Yuzwa et al. 2008 Nature Chemical Biology 4:483; Yuzwa et al. 2012 Nature Chemical Biology 8:393). The assay was performed in 200 mM Citrate/phosphate buffer supplemented with 0.005% Tween-20. 35.6 g Na2HPO42H2O (Sigma, # C0759) were dissolved in 1 L water to obtain a 200 mM solution. 19.2 g citric acid (Merck, #1.06580) was dissolved in 1 L water to obtain a 100 mM solution. pH of the sodiumphosphate solution was adjusted with the citric acid solution to 7.2. The buffer to stop the reaction consists of a 500 mM Carbonate buffer, pH 11.0. 734 mg
FM-GlcNAc were dissolved in 5.48 mL DMSO to obtain a 250 mM solution and was stored at −20° C. OGA was used at a 10 nM (protocol A) or 2 nM (protocol B) concentration and FM-GlcNAc at a 100 uM final concentration. Dilutions were prepared in assay buffer.
50 nl of a compound dissolved in DMSO was dispensed on Black Proxiplate™ 384 Plus Assay plates (Perkin Elmer, #6008269) and 3 μl fl-OGA enzyme mix added subsequently. Plates were pre-incubated for 60 min at room temperature and then 2 μl FM-GlcNAc substrate mix added. […] Plates were briefly centrifuged for 1 min at 1000 rpm and incubate at room temperature for 1 h (10 nM OGA, protocol A) or 6 h (2 nM OGA, protocol B). To stop the reaction 5 μl STOP buffer were added and plates centrifuge again 1 min at 1000 rpm. Fluorescence was quantified in the Thermo Scientific Fluoroskan Ascent or the PerkinElmer EnVision with excitation wavelength 485 nm and emission wavelength 538 nm.
For analysis a best-fit curve is fitted by a minimum sum of squares method. From this an IC50 value and Hill coefficient was obtained. High control (no inhibitor) and low control (saturating concentrations of standard inhibitor) were used to define the minimum and maximum values.

Where [1] appears, read: Enzymatic protocol B (2 nM OGA, 6 h).
Setting [2] is: Enzymatic protocol A (10 nM OGA, 1 h).

As usually defined, the Emax is the maximal effect, on the per cent scale that the assay sets. With `Cc1cc(C[C@H]2CCN(C(C)c3nc4ccccc4[nH]3)C2)cc(C)n1` (mixture of isomers) [compound 78], under setting [1], the Emax was 8.78% and the IC50 was more than 10000 nM.
`Cc1cc(C[C@H]2CCN(C(C)c3cc4ccccc4n3C)C2)cc(C)n1` (mixture of isomers) [compound 94]: under setting [1], the Emax was found to be 30.7% and the IC50 is more than 10000 nM.
As for `CC(=O)Nc1ncc(CN2CCCC(COc3cc(C)nc(C)c3)C2)[nH]1` (racemic) [compound 132], under setting [1], the Emax came to 91.9% and the IC50 was 1230 nM.
In the case of `Cc1cc(CC2CCCN(C(C)c3nc4ccccc4[nH]3)C2)cc(C)n1` (racemic) [compound 149], under setting [1], the Emax worked out at 67.6% and the IC50 was 5370 nM.
For `Cc1cc(OCC2(F)CCCN(Cc3ccc4nccnc4c3)C2)cc(C)n1` (racemic) [compound 157] the same measures were 69% and 2400 nM.
`CC(=O)Nc1ncc(CN2C[C@@H](F)C[C@@H](COc3cc(C)nc(C)n3)C2)s1` (racemic) [compound 164]: under setting [1], the maximum response (Emax) worked out at 94% and the IC50 is 617 nM.
For `CC(=O)Nc1ncc(CN2C[C@@H](Cc3cc(C)nc(C)c3)CC[C@@H]2C)s1` (racemic) [compound 165], under setting [1], the Emax was determined as 100% and the IC50 was 2.24 nM.
Consider `CC(=O)Nc1ncc(CN2C[C@@H](Cc3cc(C)nc(C)c3)CC[C@H]2C)s1` (racemic) [compound 166], for which, under setting [1], the Emax was found to be 99% and the IC50 is 2.63 nM.
In the case of `CC(=O)Nc1ncc(CN2CCC[C@@H](Cc3cc(C)nc(C)c3)[C@H]2C)s1` (racemic) [compound 169], under setting [1], the Emax was 100% and the IC50 is 87.1 nM.
Turning to `CC(=O)Nc1ncc(CN2CCCC(c3cc(C)nc(C)c3)C2)s1` (single isomer, unassigned) [compound 131], under setting [1], the “Enzymatic Emax (%)” value was 85.38% and the IC50 was 977 nM.
With `CC(=O)Nc1ncc(CN2CCC[C@@H](Cc3cc(C)nc(C)c3)[C@H]2C)s1` (single isomer, unassigned) [compound 170], under setting [1], the Emax turned out to be 100% and the IC50 is 81.3 nM.
As to `CC(=O)Nc1ncc(CN2CCC[C@H](Cc3cc(C)nc(C)c3)[C@@H]2C)s1` (single isomer, unassigned) [compound 171], under setting [1], the Emax came out at 52% and the IC50 was 9550 nM.
In the case of `CC(=O)Nc1ncc(S(=O)(=O)N2CCCC(Oc3cc(C)nc(C)c3)C2)s1` (stereo not drawn) [compound 1], under setting [2], the Emax came out at 96.3% and the IC50 is 661 nM.
Consider `CC(=O)Nc1ncc(S(=O)(=O)N2CCCC(Oc3ccnc(C)c3)C2)s1` (stereo not drawn) [compound 2], for which, under setting [2], the Emax was found to be 89% and the IC50 is 1050 nM.
`CC(=O)Nc1ncc(S(=O)(=O)N2CCC(c3ccnc(C)c3)C2)s1` (stereo not drawn) [compound 3]: under setting [2], the maximal effect (Emax) amounted to 15% and the IC50 is more than 10000 nM. Under setting [1], the Emax was 43% and the IC50 was more than 10000 nM.
Take `CC(=O)Nc1ncc(S(=O)(=O)N2CCC(c3ccc(C)nc3)C2)s1` (stereo not drawn) [compound 4]: under setting [1], the Emax came out at 50.5%.
Consider `CC(=O)Nc1ncc(CN2CCCC(c3ccccc3)C2)s1` (stereo not drawn) [compound 5, reference compound], for which, under setting [2], the Emax was determined as 102% and the IC50 is 141 nM.
Consider `CC(=O)Nc1ncc(CN2CCC[C@@H](Nc3cc(C)nc(C)c3)C2)s1` [compound 8], for which, under setting [1], the Emax worked out at 101% and the IC50 was 50.1 nM.
On to `Cc1cc(N[C@@H]2CCCN(Cc3ccc4nccnc4c3)C2)cc(C)n1` [compound 10], for which, under setting [1], the Emax was 85.6% and the IC50 was 1660 nM.
With `Cc1cc(N[C@H]2CCCN(Cc3ccc4nccnc4c3)C2)cc(C)n1` [compound 12], under setting [1], the Emax stood at 92.9% and the IC50 was 676 nM.
Regarding `CC(=O)Nc1ncc(CN2CCCC(OCc3cc(C)nc(C)c3)C2)s1` (stereo not drawn) [compound 21], under setting [1], the Emax worked out at 101% and the IC50 was 63.1 nM.
On to `CC(=O)Nc1ncc(CN2CC[C@@H](Nc3cc(C)nc(C)c3)C2)s1` [compound 22], for which, under setting [1], the Emax worked out at 99.8% and the IC50 is 214 nM.
`CC(=O)Nc1ncc(CN2CC[C@H](Nc3cc(C)nc(C)c3)C2)s1` [compound 23]: under setting [1], the Emax is 101% and the IC50 is 158 nM.
Consider `CC(=O)Nc1ncc(CN2CCCC(N(C)c3cc(C)nc(C)c3)C2)s1` (stereo not drawn) [compound 32], for which, under setting [1], the Emax stood at 101% and the IC50 is 13.5 nM.
For `CC(=O)Nc1ncc(CN2CC[C@@H](Cc3ccc(C(F)(F)F)c(C)n3)C2)s1` [compound 36] the same measures were 99% and 56.2 nM.
Take `CC(=O)Nc1ncc(CN2CCC(Cc3cccc(C(C)C)n3)C2)s1` (stereo not drawn) [compound 40]: under setting [1], the Emax came to 99.7% and the IC50 is 7.76 nM.
As to `COc1cc(C[C@H]2CCN(Cc3cnc(NC(C)=O)s3)C2)cc(C)n1` [compound 42], under setting [1], the Emax came to 101% and the IC50 is 8.32 nM.
For `CC(=O)Nc1ncc(CN2CC[C@H](Cc3cncnc3)C2)s1` [compound 55], under setting [1], the Emax was found to be 99.8% and the IC50 was 55 nM.
Taken in the same sequence, the figures for `COc1ccc(C)nc1C[C@H]1CCN(Cc2cnc(NC(C)=O)s2)C1` [compound 57] were 100% and 45.7 nM.
Consider `CC(=O)Nc1ncc(CN2CCC(Cc3ccc(C(F)(F)F)nn3)C2)s1` (stereo not drawn) [compound 65], for which, under setting [1], the “Enzymatic Emax (%)” value was 100% and the “Enzymatic hOGA; pIC50” value is reported as 7.28.
For the molecule `CC(=O)Nc1ncc(CN2CCC(Cc3ccc(C(F)(F)F)cn3)C2)s1` (stereo not drawn) [compound 68], under setting [1], the “Enzymatic Emax (%)” value worked out at 101.5% and the “Enzymatic hOGA; pIC50” value was 7.10.
For `Cc1cc(C[C@H]2CCN(Cc3ccc4sc(C)nc4c3)C2)cc(C)n1` [compound 82] the same measures were 87.4% and 5.91.
Take `Cc1cc(C[C@H]2CCN(Cc3ccc4scnc4c3)C2)cc(C)n1` [compound 83]: under setting [1], the “Enzymatic Emax (%)” value stood at 87.8% and the “Enzymatic hOGA; pIC50” value is on record as 5.79.
Consider `Cc1cc(C[C@H]2CCN(Cc3ccc4c(c3)OCO4)C2)cc(C)n1` [compound 99], for which, under setting [1], the “Enzymatic Emax (%)” value was −6.5% and the “Enzymatic hOGA; pIC50” value was less than 5.
Taken in the same sequence, the figures for `Cc1cc(C[C@H]2CCN(Cc3ccc4c(c3)OCCO4)C2)cc(C)n1` [compound 101] were 81.7% and 5.8.
On to `Cc1cc([C@@H]2CCCN([C@@H](C)c3ccc4sc(C)nc4c3)C2)cc(C)n1` [compound 116], for which, under setting [1], the maximal effect (Emax) came to 79.2% and the IC50 was 3470 nM.
As for `CC(=O)Nc1ncc(CN2CCCC(COc3cc(C)nc(C)c3)C2)[nH]1` (stereo not drawn) [compound 120], under setting [1], the Emax was 91.9% and the IC50 is 1230 nM.
